In ChEMBL document CHEMBL5532661, “Discovery of a Novel Glucagon-like Peptide-1 (GLP-1) Analogue from Bullfrog and Investigation of Its Potential for Designing GLP-1-Based Multiagonists” (J Med Chem, 2024):
Numbered stars: 1 amine (or outer) side, 2 acyl side, 3 side chain; on linkers, the order of the positions; unused ones are H or OH. Square brackets hold non-standard residues; d marks the D form. Side chains are listed from the residue outwards. Peptide text beside a SMILES is read from it. * marks the point of attachment. C18 diacid = O=C(O)CCCCCCCCCCCCCCCCC(=O)*; γGlu = O=C(O)[C@H](CCC(=O)[*:2])N[*:1]; Palmitoyl = CCCCCCCCCCCCCCCC(=O)*; AEEA = NCCOCCOCC(=O)O; Aib = CC(C)(N)C(=O)O

How the values were obtained:
Type in all cases: functional, cell-based
[1] = target: T1, Glucagon-like peptide 1 receptor (Homo sapiens, UniProt P43220); assay: Agonist activity at human GLP-1 receptor expressed in HEK293 cells assessed as cAMP level measured after 60 mins by HTRF based assay
[2] = target: T1, Glucagon-like peptide 1 receptor; assay: Agonist activity at human GLP-1 receptor expressed in HEK293 cells assessed as cAMP level by measuring relative percent (GLP-1 EC50/compound EC50) measured after 60 mins by HTRF based assay relative to GLP-1
[3] = target: T2, Glucagon receptor (Homo sapiens, UniProt P47871); assay: Agonist activity at human GCGR expressed in HEK293 cells assessed as cAMP level measured after 60 mins by HTRF based assay
[4] = target: T2, Glucagon receptor; assay: Agonist activity at human GCGR expressed in HEK293 cells assessed as cAMP level by measuring relative percent (glucagon EC50/compound EC50) measured after 60 mins by HTRF based assay relative to glucagon
[5] = target: T3, Gastric inhibitory polypeptide receptor (Homo sapiens, UniProt P48546); assay: Agonist activity at human GIPR receptor expressed in HEK293 cells assessed as cAMP level measured after 60 mins by HTRF based assay
T3 sequence (P48546 whole entry): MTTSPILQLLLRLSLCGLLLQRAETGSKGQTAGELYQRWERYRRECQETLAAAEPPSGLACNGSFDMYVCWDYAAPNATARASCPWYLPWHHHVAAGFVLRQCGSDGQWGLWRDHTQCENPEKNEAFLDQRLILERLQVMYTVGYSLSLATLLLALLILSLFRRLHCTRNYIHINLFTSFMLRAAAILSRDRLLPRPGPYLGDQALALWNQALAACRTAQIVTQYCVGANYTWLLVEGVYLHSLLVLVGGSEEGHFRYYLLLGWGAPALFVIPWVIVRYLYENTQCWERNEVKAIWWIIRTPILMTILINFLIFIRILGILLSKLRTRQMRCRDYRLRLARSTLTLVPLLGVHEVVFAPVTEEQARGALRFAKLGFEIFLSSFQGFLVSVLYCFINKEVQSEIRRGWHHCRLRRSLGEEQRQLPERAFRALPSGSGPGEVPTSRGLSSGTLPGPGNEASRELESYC

[6] = target: T4, Gastric inhibitory polypeptide receptor (Homo sapiens) (UniProt P48546); assay: Agonist activity at human GIPR receptor expressed in HEK293 cells assessed as cAMP level by measuring relative percent (GIP EC50/compound EC50) measured after 60 mins by HTRF based assay relative to GIP
T4 sequence (whole entry): T3 sequence (P48546 whole entry)

T2 sequence (P47871 whole entry): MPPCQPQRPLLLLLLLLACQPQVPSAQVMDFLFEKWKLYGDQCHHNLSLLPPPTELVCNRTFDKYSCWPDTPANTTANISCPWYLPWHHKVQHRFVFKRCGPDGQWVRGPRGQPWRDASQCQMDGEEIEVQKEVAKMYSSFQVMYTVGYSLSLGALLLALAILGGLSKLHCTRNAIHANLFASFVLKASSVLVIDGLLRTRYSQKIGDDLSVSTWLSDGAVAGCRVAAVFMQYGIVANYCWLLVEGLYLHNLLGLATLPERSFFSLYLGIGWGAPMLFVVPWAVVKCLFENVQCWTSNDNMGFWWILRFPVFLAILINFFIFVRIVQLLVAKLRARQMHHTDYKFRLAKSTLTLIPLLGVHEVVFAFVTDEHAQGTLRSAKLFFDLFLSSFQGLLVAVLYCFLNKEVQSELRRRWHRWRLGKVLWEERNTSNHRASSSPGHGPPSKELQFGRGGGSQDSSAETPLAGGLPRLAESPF
T1 sequence (P43220 whole entry): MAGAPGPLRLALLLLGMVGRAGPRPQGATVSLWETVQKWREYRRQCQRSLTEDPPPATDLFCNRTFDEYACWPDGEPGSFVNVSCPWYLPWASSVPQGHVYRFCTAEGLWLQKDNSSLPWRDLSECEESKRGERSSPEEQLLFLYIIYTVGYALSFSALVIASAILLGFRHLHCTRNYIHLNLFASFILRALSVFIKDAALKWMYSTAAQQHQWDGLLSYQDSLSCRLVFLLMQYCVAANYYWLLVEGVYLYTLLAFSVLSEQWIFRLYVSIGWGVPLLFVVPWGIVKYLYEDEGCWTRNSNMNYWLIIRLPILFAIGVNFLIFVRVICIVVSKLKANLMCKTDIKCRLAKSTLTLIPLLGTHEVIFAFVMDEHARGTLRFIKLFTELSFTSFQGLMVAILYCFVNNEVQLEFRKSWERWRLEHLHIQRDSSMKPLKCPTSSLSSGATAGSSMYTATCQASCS

Compound: CC[C@H](C)[C@H](NC(=O)[C@H](CCCCNC(=O)COCCOCCNC(=O)COCCOCCNC(=O)CC[C@H](NC(=O)CCCCCCCCCCCCCCCCC(=O)O)C(=O)O)NC(=O)[C@H](CCC(=O)O)NC(=O)[C@H](CCSC)NC(=O)[C@H](C)NC(=O)[C@H](CCCNC(=N)N)NC(=O)[C@H](CO)NC(=O)[C@H](CC(C)C)NC(=O)[C@H](CC(=O)O)NC(=O)[C@H](CO)NC(=O)[C@@H](NC(=O)[C@H](Cc1ccccc1)NC(=O)[C@@H](NC(=O)CNC(=O)[C@H](CCC(N)=O)NC(=O)C(C)(C)NC(=O)[C@@H](N)Cc1c[nH]cn1)[C@@H](C)O)[C@@H](C)O)C(=O)N[C@@H](C)C(=O)N[C@H](C(=O)N[C@@H](CCCNC(=N)N)C(=O)N[C@@H](CC(C)C)C(=O)N[C@@H](Cc1ccccc1)C(=O)N[C@H](C(=O)N[C@@H](CCC(=O)O)C(=O)N[C@@H](Cc1c[nH]c2ccccc12)C(=O)N[C@@H](CC(C)C)C(=O)N[C@H](C(=O)N[C@@H](CCC(=O)O)C(=O)NCC(=O)NCC(=O)N1CCC[C@H]1C(=O)N[C@@H](CO)C(=O)N[C@@H](CO)C(=O)NCC(=O)N[C@@H](C)C(=O)N1CCC[C@H]1C(=O)N1CCC[C@H]1C(=O)N1CCC[C@H]1C(=O)N[C@@H](CO)C(N)=O)[C@@H](C)CC)[C@@H](C)CC)C(C)C (H-H[Aib]QGTFTSDLSRAMEK([AEEA-AEEA-γGlu-C18 diacid])IAVRLFIEWLIEGGPSSGAPPPS-NH2)
- EC50 [1]: 0.03 nM
- Activity ([2]; filed as agonist): 177%
- EC50 [3]: 2.6 nM
- Activity [4]: 4%
- EC50 [5]: 0.99 nM
- Activity [6]: 3%

Compound: CCCCCCCCCCCCCCCC(=O)N[C@@H](CCC(=O)NCCCC[C@H](NC(=O)[C@H](CO)NC(=O)[C@H](CCSC)NC(=O)[C@H](CC(=O)O)NC(=O)[C@H](CO)NC(=O)[C@@H](NC(=O)[C@H](Cc1ccccc1)NC(=O)[C@@H](NC(=O)CNC(=O)[C@H](CCC(N)=O)NC(=O)[C@H](CO)NC(=O)[C@@H](N)Cc1c[nH]cn1)[C@@H](C)O)[C@@H](C)O)C(=O)N[C@@H](Cc1ccc(O)cc1)C(=O)N[C@@H](CC(C)C)C(=O)N[C@@H](CC(=O)O)C(=O)N[C@@H](CO)C(=O)N[C@@H](CCCNC(=N)N)C(=O)N[C@@H](CCCNC(=N)N)C(=O)N[C@@H](C)C(=O)N[C@@H](CCC(N)=O)C(=O)N[C@@H](CC(=O)O)C(=O)N[C@@H](Cc1ccccc1)C(=O)N[C@H](C(=O)N[C@@H](CC(=O)O)C(=O)N[C@@H](Cc1c[nH]c2ccccc12)C(=O)N[C@@H](CC(C)C)C(=O)N[C@@H](CCCCN)C(=O)N[C@@H](CC(N)=O)C(=O)NCC(=O)NCC(=O)N1CCC[C@H]1C(=O)N[C@@H](CO)C(=O)N[C@@H](CO)C(=O)NCC(=O)N[C@@H](C)C(=O)N1CCC[C@H]1C(=O)N1CCC[C@H]1C(=O)N1CCC[C@H]1C(=O)N[C@@H](CO)C(N)=O)C(C)C)C(=O)O (H-HSQGTFTSDMSK([γGlu-Palmitoyl])YLDSRRAQDFVDWLKNGGPSSGAPPPS-NH2)
- EC50 [1]: 0.046 nM
- Activity ([2]; filed as agonist): 115%
- EC50 [3]: 0.19 nM
- Activity ([4]; filed as agonist): 48%

Compound: CSCC[C@H](NC(=O)[C@H](CC(=O)O)NC(=O)[C@H](CO)NC(=O)[C@@H](NC(=O)[C@H](Cc1ccccc1)NC(=O)[C@@H](NC(=O)CNC(=O)[C@H](CCC(N)=O)NC(=O)[C@H](CO)NC(=O)[C@@H](N)Cc1c[nH]cn1)[C@@H](C)O)[C@@H](C)O)C(=O)N[C@@H](CO)C(=O)N[C@@H](CCCCN)C(=O)N[C@@H](Cc1ccc(O)cc1)C(=O)N[C@@H](CCCCNC(=O)COCCOCCNC(=O)COCCOCCNC(=O)CC[C@H](NC(=O)CCCCCCCCCCCCCCCCC(=O)O)C(=O)O)C(=O)N[C@@H](CC(=O)O)C(=O)N[C@@H](CO)C(=O)N[C@@H](CCCNC(=N)N)C(=O)N[C@@H](CCCNC(=N)N)C(=O)N[C@@H](C)C(=O)N[C@@H](CCC(N)=O)C(=O)N[C@@H](CC(=O)O)C(=O)N[C@@H](Cc1ccccc1)C(=O)N[C@H](C(=O)N[C@@H](CC(=O)O)C(=O)N[C@@H](Cc1c[nH]c2ccccc12)C(=O)N[C@@H](CC(C)C)C(=O)N[C@@H](CCCCN)C(=O)N[C@@H](CC(N)=O)C(=O)NCC(=O)NCC(=O)N1CCC[C@H]1C(=O)N[C@@H](CO)C(=O)N[C@@H](CO)C(=O)NCC(=O)N[C@@H](C)C(=O)N1CCC[C@H]1C(=O)N1CCC[C@H]1C(=O)N1CCC[C@H]1C(=O)N[C@@H](CO)C(N)=O)C(C)C (H-HSQGTFTSDMSKYK([AEEA-AEEA-γGlu-C18 diacid])DSRRAQDFVDWLKNGGPSSGAPPPS-NH2)
- EC50 [1]: 0.049 nM
- Activity ([2]; filed as agonist): 108%
- EC50 [3]: 1.2 nM
- Activity [4]: 8%

Compound: H-HSQGTFTSDMSKYLDSRRAQDFVDWLKNGGPSSGAPPPS-NH2
- EC50 [1]: 0.016 nM
- Activity ([2]; filed as agonist): 331%
- EC50 [3]: 0.052 nM
- Activity ([4]; filed as agonist): 177%

Compound: H-HSQGTFTSDMSKYLDSRRAQDFVDWLIKGRNRNNIA-NH2
- EC50 [1]: 0.091 nM
- Activity ([2]; filed as agonist): 58%
- EC50 [3]: 0.18 nM
- Activity ([4]; filed as agonist): 51%

Compound: H-HSQGTFTSDMSSYLDSRRAQDFVDWLMNTKRNRNNIA-NH2
- EC50 [1]: 0.11 nM
- Activity ([2]; filed as agonist): 45%
- EC50 [3]: 0.85 nM
- Activity [4]: 11%

Compound: H-HSQGTFTSDMSSYLDSRRAQDFVDWLKNGGPSSGAPPPS-NH2
- EC50 [1]: 0.061 nM
- Activity ([2]; filed as agonist): 87%
- EC50 [3]: 0.15 nM
- Activity ([4]; filed as agonist): 61%

Compound: H-HSQGTFTSDMSSYLDSRRAQDFVDWLIKGRPSSGAPPPS-NH2
- EC50 [1]: 0.21 nM
- Activity [2]: 25%
- EC50 [3]: 1.8 nM
- Activity [4]: 5%

Compound: H-HSQGTFTSDMSKYLDSRRAQDFVDWLIKG-NH2
- EC50 [1]: 0.81 nM
- Activity [2]: 7%
- EC50 [3]: 2.6 nM
- Activity [4]: 4%

Compound: CSCC[C@H](NC(=O)[C@H](CC(=O)O)NC(=O)[C@H](CO)NC(=O)[C@@H](NC(=O)[C@H](Cc1ccccc1)NC(=O)[C@@H](NC(=O)CNC(=O)[C@H](CCC(N)=O)NC(=O)[C@H](CO)NC(=O)[C@@H](N)Cc1c[nH]cn1)[C@@H](C)O)[C@@H](C)O)C(=O)N[C@@H](CO)C(=O)N[C@@H](CCCCNC(=O)COCCOCCNC(=O)COCCOCCNC(=O)CC[C@H](NC(=O)CCCCCCCCCCCCCCCCC(=O)O)C(=O)O)C(=O)N[C@@H](Cc1ccc(O)cc1)C(=O)N[C@@H](CC(C)C)C(=O)N[C@@H](CC(=O)O)C(=O)N[C@@H](CO)C(=O)N[C@@H](CCCNC(=N)N)C(=O)N[C@@H](CCCNC(=N)N)C(=O)N[C@@H](C)C(=O)N[C@@H](CCC(N)=O)C(=O)N[C@@H](CC(=O)O)C(=O)N[C@@H](Cc1ccccc1)C(=O)N[C@H](C(=O)N[C@@H](CC(=O)O)C(=O)N[C@@H](Cc1c[nH]c2ccccc12)C(=O)N[C@@H](CC(C)C)C(=O)N[C@@H](CCCCN)C(=O)N[C@@H](CC(N)=O)C(=O)NCC(=O)NCC(=O)N1CCC[C@H]1C(=O)N[C@@H](CO)C(=O)N[C@@H](CO)C(=O)NCC(=O)N[C@@H](C)C(=O)N1CCC[C@H]1C(=O)N1CCC[C@H]1C(=O)N1CCC[C@H]1C(=O)N[C@@H](CO)C(N)=O)C(C)C (H-HSQGTFTSDMSK([AEEA-AEEA-γGlu-C18 diacid])YLDSRRAQDFVDWLKNGGPSSGAPPPS-NH2)
- EC50 [1]: 0.052 nM
- Activity ([2]; filed as agonist): 102%
- EC50 [3]: 1.4 nM
- Activity [4]: 7%

Compound: H-HSQGTFTSDMSSYLDSRRAQEFVDWLIKGR-NH2
- EC50 [1]: 0.87 nM
- Activity [2]: 6%
- EC50 [3]: 3.5 nM
- Activity [4]: 3%

Compound: H-HSQGTFTSDMSSYLDSRRAQDFVDWLMNT-NH2
- EC50 [1]: 0.96 nM
- Activity [2]: 6%
- EC50 [3]: 0.51 nM
- Activity [4]: 18%

Compound: CCCCCCCCCCCCCCCC(=O)N[C@@H](CCC(=O)NCCCC[C@H](NC(=O)[C@H](CO)NC(=O)[C@@H]1CCCN1C(=O)[C@@H]1CCCN1C(=O)[C@@H]1CCCN1C(=O)[C@H](C)NC(=O)CNC(=O)[C@H](CO)NC(=O)[C@H](CO)NC(=O)[C@@H]1CCCN1C(=O)CNC(=O)CNC(=O)[C@H](CC(N)=O)NC(=O)[C@H](CCCCN)NC(=O)[C@H](CC(C)C)NC(=O)[C@H](Cc1c[nH]c2ccccc12)NC(=O)[C@H](CC(=O)O)NC(=O)[C@@H](NC(=O)[C@H](Cc1ccccc1)NC(=O)[C@H](CC(=O)O)NC(=O)[C@H](CCC(N)=O)NC(=O)[C@H](C)NC(=O)[C@H](CCCNC(=N)N)NC(=O)[C@H](CCCNC(=N)N)NC(=O)[C@H](CO)NC(=O)[C@H](CC(=O)O)NC(=O)[C@H](CC(C)C)NC(=O)[C@H](Cc1ccc(O)cc1)NC(=O)[C@H](CCCCN)NC(=O)[C@H](CO)NC(=O)[C@H](CCSC)NC(=O)[C@H](CC(=O)O)NC(=O)[C@H](CO)NC(=O)[C@@H](NC(=O)[C@H](Cc1ccccc1)NC(=O)[C@@H](NC(=O)CNC(=O)[C@H](CCC(N)=O)NC(=O)[C@H](CO)NC(=O)[C@@H](N)Cc1c[nH]cn1)[C@@H](C)O)[C@@H](C)O)C(C)C)C(N)=O)C(=O)O (H-HSQGTFTSDMSKYLDSRRAQDFVDWLKNGGPSSGAPPPSK([γGlu-Palmitoyl])-NH2)
- EC50 [1]: 0.068 nM
- Activity ([2]; filed as agonist): 78%
- EC50 [3]: 0.53 nM
- Activity [4]: 17%
